In patent US20240100076A1, “METHODS AND COMPOSITIONS FOR TREATING NEURODEGENERATIVE DISEASES” (Augusta University Research Institute, Inc., priority 2021, published 2024):
“Also recorded” adds a separate entry of the source.

Legend:
[1] = tested on: VDAC1; assay: VDAC1 expression in PD mouse brain; type: in vivo; settings: intranasal 5 mg/kg/day for 28 days
Experimental: (§1) The acquisition, care, and experimental treatment of animals used in this study were in compliance with the NIH guidelines as published in the Guide for the Care and Use of Laboratory Animals. Gangliosides (GD3 or GM1; 5 mg/kg/day) were infused intranasally (Hanson, et al., J. Vis. Exp. (74) (2013) doi.org/10.3791/4440.) with a small pipette (each […] into the right and left nares twice, or […] per day) into 8-month-old WT (C57B6/J), A53T PD, and GM2S-KO mice daily for 7-28 days. GD3 and GM1 used in this study were isolated from either bovine buttermilk or brains by established procedures (Ariga, et al., J. Biol. Chem. 269, 2667-2675 (1994), Ledeen and Yu, Methods Enzymol. 83, 139-191 (1982), Ren, et al., J. Biol. Chem. 267, 12632-12638 (1992)). Gangliosides, being amphipathic, were easily dissolved in saline. The placebo group received saline infusions. At first, to provide direct evidence for ganglioside administration into brain, mice totally deficient in GM1 (8-month-old GM2S-KO mice) were intranasally administered GM1 (0.5 or 5 mg/kg/day) for 7 days. Brain-delivered GM1 was analyzed by immunohistochemistry and TLC. After confirmation that ganglioside reached the brain of GM2S-KO mice by the intranasal route, 8-month-old A53T PD mice were utilized for ganglioside treatments (28 days). […]

[2] = tested on: hippocampal NSC (Sox2 positive cell); assay: SOX2 positive NSCs in hippocampus of PD mouse brain; type: in vivo; settings: intranasal 5 mg/kg/day for 28 days (combination: GD3 2 weeks, then GM1 2 weeks)
Experimental: as §1

[3] = tested on: 5XFAD mouse brain; settings: icv 5 mg/kg/day for 7 days; cited from earlier work
[4] = tested on: 5XFAD mice; assay: Buried pellet test (olfactory function) in 5XFAD mice; type: in vivo, mouse; settings: intranasal 5 mg/kg/day for 8 weeks (combination: GD3 4 weeks, GM1 4 weeks), n=3
Experimental: To detect olfaction deficiency, the buried pellet test was assessed (FIG. 10A). Bedding tips were set to 3 cm height. The time until mice uncover the food pellet was measured. […] It is believed that GD3 maintains stemness and inhibits further neuronal differentiation such as olfactory neurons. […] The buried pellet test, which relies on the animal's natural tendency to use olfactory cues for foraging, is used to confirm ability to smell (FIG. 10A). The time until mice uncover the food pellet in bedding tips was measured. […] Thus, GD3 has important role in olfactory function (FIG. 12).

[5] = tested on: NSC pools in DG and SVZ; settings: icv by micro-osmotic pump, 5 mg/kg/day for 7 days, GD3S-KO mouse; cited from earlier work
[6] = target: T1, aSyn (Homo sapiens, UniProt P37840, A53T); assay: aSyn levels in A53T PD mouse brain after intranasal gangliosides; type: in vivo; settings: intranasal 5 mg/kg/day for 28 days, 8-month-old A53T PD mice
T1 construct: tissue The Jackson Laboratory 006823; host or cells: brain / substantia nigra of A53T PD transgenic mice
Experimental: as §1

[7] = tested on: 5XFAD mice; assay: Whole-body dual-energy X-ray absorptiometry (DXA) in 5XFAD mice; type: in vivo, mouse; settings: intranasal, 8 weeks (combination 4 + 4 weeks)
Experimental: Bone loss often accelerates with neurodegenerative diseases and during aging. Protecting from bone loss would be complementary to treatments for neurodegenerative diseases. Body composition analyses were measured by dual-energy X-ray absorptiometry (DXA; Kubtec Digimus, KUB Technologies, Stratford, CT, USA). Bone area (cm2), Bone mineral content (BMC, grams) and bone mineral density (BMD, g/cm2) were calculated for the whole body (FIGS. 11A-11C) using the manufacturer's analysis software (Kubtec Digimus). […] Increasing bone density in patients with neurodegenerative diseases, would decrease risk of fracture and increase the quality of life.

[8] = tested on: 5XFAD mice; assay: Novel object recognition test in 5XFAD mice; type: in vivo, mouse; settings: intranasal 5 mg/kg/day for 8 weeks (combination: GD3 4 weeks, GM1 4 weeks), 2-month-old 5XFAD mice, n=3
Experimental: FIGS. 9A and 9B illustrate the memory function of intranasal ganglioside treatments. FIG. 9A is a schematic diagram showing the experimental procedure of novel object recognition test. […] Each mouse was placed in an arena, with two identical objects placed at each end of the arena. After 5 min of investigation, mice were returned to their home cage. 24 hours later, one test object was replaced with a novel object, and animals were allowed 5 min for investigation. The time spent exploring each object was recorded. Percentages of exploration time of novel object (memory) are shown in the columns (n=3).
Gangliosides (5 mg/kg/day), GD3, GM1, or GD3-GM1 (GD3 for 4 weeks and GM1 for 4 week) were administered into 2-month-old 5XFAD mice for 8 weeks. To assess the effect of intranasal ganglioside treatment on cognitive function, mice were tested using the novel object recognition test (FIG. 9A). […] These findings indicate that intranasal ganglioside has an important role to enhance hippocampal-dependent learning and memory.

[9] = tested on: Neuro 2a cells; assay: TH mRNA expression in Neuro 2a cells (qPCR); type: cell-based, mouse; settings: 5 mM ganglioside, 24 h
Experimental: (§2) Mouse Neuro-2a neuroblastoma cells (ATCC, Manassas, VA, USA, CCL-131) were maintained in Dulbecco's modified Eagle's medium supplemented with 10% fetal bovine serum, 2 mM glutamine, and penicillin/streptomycin at 37° C., 5% CO2.
Total RNA samples were isolated from substantia nigra of mouse brains or cultured Neuro 2a cells using TRIzol reagent (Life Technologies from Thermo Fisher Scientific). Neuro 2a cells were untreated or treated with 5 mM GD3 or GM1 in B27-supplemented Neuro-basal-A medium for 24 h. cDNAs were synthesized based on the total RNAs as templates using MultiScribe reverse transcriptase (Applied Biosystems, Waltham, MA, USA). qPCR was performed with run RT2 SYBR Green qPCR master mix (QIAGEN, Hilden, Germany) on the CFX96 system (Bio-Rad, Hercules, CA, USA). The relative expression levels of TH were normalized to the actin transcript level. The normalized value from control (WT+saline, or no treated cells) is defined as 1.0. The following primers were used: TH forward, 5′-CACTATGCCCACCCCCAG-3′ (SEQ ID NO:1), reverse: 5′-CGCCGTCCAATGAACCTT-3′ (SEQ ID NO:2); actin forward, 5′-[…]-3′ (SEQ ID NO:3), reverse, 5′-[…]-3′ (SEQ ID NO:4).

[10] = tested on: Nurr1; assay: Expression and nuclear localization of Nurr1 in substantia nigra pars compacta of A53T PD mouse; type: in vivo; settings: intranasal 5 mg/kg/day for 28 days
Experimental: as §1

[11] = tested on: TH; assay: TH expression in substantia nigra of GM2S-KO mouse; type: in vivo; settings: intranasal 5 mg/kg/day for 28 days, 8 months old GM2S-KO mouse
Experimental: as §1

[12] = tested on: GM2S; assay: GM2S gene expression in PD mouse brain; type: in vivo; settings: intranasal 5 mg/kg/day for 28 days
Experimental: as §1

[13] = tested on: TH gene promoter; assay: ChIP assay on TH gene promoter in Neuro 2a cells; type: cell-based, mouse; settings: 5 mM ganglioside, 24 h
Experimental: as §2
ChIP assays were performed on cell lysates as previously described.31,32,76 Briefly, Neuro 2a cells, untreated or treated with 5 mM GD3 or GM1 for 24 h, were incubated in 1% PFA for 10 min at ambient temperature to crosslink the interacting partners. Cells with the cross-linked complexes were subjected to lysis by sonication with six 20-s pulses at the power scale 7 controlled by a sonicator (Sonic dismembrator model 100, Fisher Scientific). After centrifugation at 15,000×g for 10 min, the supernatants were collected for the following experiments. Immunoprecipitation was carried out with the following specific antibodies bound on protein G-conjugated magnetic beads (Millipore): anti-acetylated histone H3 (Millipore), anti-Nurr1 (R&D Systems), or anti-PITX3 (Thermo Fisher Scientific) antibodies. The amounts of the co-precipitated DNA fragments of TH promoter (+0), the Nurr1 binding site on the TH promoter (TH-NBS), and the PITX3 binding site on TH promoter (TH-PBS) were analyzed by qPCR. After normalization against GAPDH, the value of no treated cells was defined as 1.0. The following primers were used: TH forward, 5′-[…]-3′ (SEQ ID NO:5), reverse, 5′-[…]-3′ (SEQ ID NO:6); TH NBS forward, 5′-[…]-3′ (SEQ ID NO:7), reverse, 5′-[…]-3′ (SEQ ID NO:8); TH PBS forward, 5′-[…]-3′ (SEQ ID NO:9), reverse, 5′-[…]-3′ (SEQ ID NO:10); GAPDH forward, 5′-[…]-3′ (SEQ ID NO:11), reverse, 5′-TCAGTTCGGAG CCCACACGC-3′ (SEQ ID NO:12).

[14] = tested on: tyrosine hydroxylase (TH); assay: TH expression at substantia nigra in PD mouse brain; type: in vivo; settings: intranasal 5 mg/kg/day for 28 days
Experimental: as §1

Substance | VDAC1 expression [1] | hippocampal NSC (Sox2 positive cell) number [2] | SOX2-expressing cells in DG [3] | olfactory function (time to uncover the food pellet) [4] | NSC pools in DG and SVZ [5] | aSyn levels / aSyn accumulation [6] | bone area [7] | bone mineral content [7] | bone mineral density [7] | memory function (exploration time of novel object) [8] | TH expression (mRNA) [9] | BrdU+/doublecortin+ (DCX+) newly generated immature neurons [3] | expression and nuclear localization of Nurr1 [10] | TH expression in substantia nigra of GM2S-KO mouse [11] | expression of GM2S [12] | acetylated histone H3 on TH gene promoter (ChIP) ([13]; anti-AcH3) | recruitment of Nurr1 on the TH promoter region (ChIP) ([13]; anti-Nurr1) | recruitment of Pitx3 on the TH promoter (ChIP) ([13]; anti-Pitx3) | TH expression at substantia nigra [14]
monosialodihexosylganglioside [GD3] | significantly enhance the expression | partially restored hippocampal NSC (Sox2 positive cell) number | augments self-renewal and multipotent marker, SOX2-expressing cells | could not enhance olfactory function | augments NSC pools in DG and SVZ | partially inhibits | increased | increased | increased | increased memory function | – | – | – | – | – | – | – | – | –
monosialotetrahexosylganglioside [GM1] | significantly enhance the expression | – | – | enhance olfactory function | – | strongly inhibits; also recorded: reduced aSyn levels | increased | increased | increased | increased memory function | dramatically increased the TH expression | increases BrdU+/doublecortin+ (DCX+) newly generated immature neurons | restored | restore the normal TH expression | promoted expression of GM2S | augmentation of acetylated histone H3 | remarkably recruited | also recruited Pitx3 | dramatically restored TH expression
